# “Also recorded” adds a separate entry of the source. Where two headings read alike, the source gives them in different places.
# Key:
# sPLA2 group I [1] = test: 10-pyrene fluorescence enzyme assay, sPLA2 group I (Lineweaver-Burke / Michaelis-Menton); format: biochemical, Naja mossambica; details: for Km: without inhibitor 18.80; for Km / Vmax: 5 nM sPLA2, 10-pyrene 2-7 μM, nonlinear regression of Vo; for Vmax: without inhibitor 21.67; for reduction of Vo with varied enzyme concentration: sPLA2 2, 6, 10 nM, CHEC-9 0.1, 1, 10 nM
# Method: (§1) Purified secreted phospholipase A2 group I from the venom of the Mozambique cobra (Naja mossambica) was obtained from Sigma. Blood was obtained from the trunk of 20 female Sprague Dawley rats (200–250 g) after decapitation, and by venipunture of 14 healthy adult humans of both sexes. Blood samples from 8 additional rats were collected following subcutaneous injections of 100 μg CHEC-9 or DMEM vehicle. These rats were placed in a standard rat restrainer during the collection period and the samples obtained via a tail nick. All specific procedures of this study were approved by both the Institutional Animal Care and Use Committee and by Institutional Review Board of Drexel University College of Medicine. Blood samples were treated with citrate-phosphate-dextrose anticoagulant (1:10, Sigma), and plasma prepared by centrifugation, before freezing at -80° until used in the enzyme assays. For the ex vivo studies, individual plasma samples were pooled from 3–7 rats or 3–5 humans.
# (§2) Enzyme assays were conducted at ambient temperature (22–25°) using a Victor 3 fluorescent reader (Perkin Elmer, Nutley NJ). The substrate was 1-Palmitoyl-2-Pyrenedecanoyl Phosphatidylcholine ("10-pyrene", Caymen Chemical, Ann Arbor MI) a substrate for all calcium dependent PLA2s with the exception of cPLA2 and PAF-AH. The substrate (supplied in chloroform) was dried under a nitrogen stream, quickly dissolved in ethanol, and stored at -20° prior to use. Substrate solutions were prepared in reaction buffer consisting of 50 mM tris (pH = 7.4), 0.1 M NaCl, 2 mM CaCl2, 0.25% fatty acid-free albumin (Sigma) and the CHEC-9 peptide at the indicated concentrations. CHEC-9 ([…]) was synthesized by Celtek, (Nashville, TN), purified and cross-linked as described previously, and aliquots stored in tris buffer or DMEM vehicles at -80°. The 10-pyrene substrate forms phospholipids vesicles in aqueous solutions [13], and upon hydrolysis, releases 10-pyrenyldecanoic acid. This product is fluorescent in the presence of albumin and was measured at 350 nm excitation, 405 nm emission. Plasma samples were 20% final concentration in the reaction mixture, and all enzyme reactions were initiated with the addition of the substrate solution to the sPLA2 containing samples. Kinetic parameters including the properties of CHEC-9 were determined by measuring the initial velocities (Vo) of enzyme reactions (within 2 minutes of initiation). […] This rate is proportional to the concentration of active enzyme in the plasma if product formation during this period is linear with respect to time (see Fig. 6). In most experiments, relative fluorescent units (RFU) were converted to product concentration using a pyrenyldecanoic acid standard curve (Molecular Probes, Eugene, OR). […] Individual reactions were carried out in duplicate or triplicate and kinetic curves were produced using 5–6 substrate concentrations, with or without peptide, reacted simultaneously. […] Km and Vmax and r^2 were determined with regression software (Prism) from Graphpad (San Diego, CA).
# (§3) The characteristics of CHEC-9 inhibition were determined using both classical characterization of inhibitor types, i.e., the direction of changes in Km and Vmax, and more recent reports that derive consistent relationships between the extent of enzyme inhibition and substrate concentration. […] We have repeated, combined, and rearranged some of their equations below in order to show the calculations used in the present experiments.
# (§4) KiNR is the apparent inhibition constant based on inhibition degree and is independent of inhibitor classification. This value varies predictably with substrate concentration for different inhibitor types. It is defined as: […]
# sPLA2 [2] = test system: sPLA2
# Method: as §2, §3
# Human Plasma sPLA2 = test: 10-pyrene fluorescence enzyme assay, human plasma sPLA2 (ex vivo); format: biochemical; details: for Vmax: without inhibitor 2.07; for Km: without inhibitor 66.52
# Method: as §1, §2, §3, §4
# sPLA2 [3] = details: 100 μg CHEC-9 s.c.
# Method: as §1, with “For the ex vivo studies, individual plasma samples were pooled from 3–7 rats or 3–5 humans.” left out
# Enzyme assays were conducted at ambient temperature (22–25°) using a Victor 3 fluorescent reader (Perkin Elmer, Nutley NJ). […] This product is fluorescent in the presence of albumin and was measured at 350 nm excitation, 405 nm emission. […] Kinetic parameters including the properties of CHEC-9 were determined by measuring the initial velocities (Vo) of enzyme reactions (within 2 minutes of initiation). […] Km and Vmax and r^2 were determined with regression software (Prism) from Graphpad (San Diego, CA).
# sPLA2 group I [4] = test: native polyacrylamide gel electrophoresis, enzyme migration; design: species or system Naja mossambica; details: for sPLA2 band on native gel, with peptide and substrate: 26 μM sPLA2, 40 μM CHEC-9, 560 μM substrate, 2 mM CaCl2, pH 7.4, room temperature 30 min, repeated four times
# Method: Polyacrylamide gradient gels (5–15%) were run with and without SDS or reducing agents using sPLA2 group I alone or after mixing the enzyme with different combinations of the components of the reaction mixture (or their solvents). Samples prepared for the native gels were 50 μl containing 26 μM sPLA2, 40 μM CHEC-9, 560 μM 1-Palmitoyl-2-Pyrenedecanoyl Phosphatidylcholine (substrate), and 2 mM CaCl2 in 20 mM tris buffer (pH = 7.4), incubated together at room temperature for 30 min. After incubation, the samples were evaporated to 20 μl. The samples were then mixed with sample buffer containing only glycerol and bromophenol blue in 0.1 M tris (pH = 6.8) and loaded onto the gels. Following electrophoresis, the gels were washed, fixed, and stained with silver reagent according to conventional methods. The native gel experiment, using different reactant combinations run side by side (Fig. 3), was repeated four times with the same result.
# cerebral cortex lesions = test system: cerebral cortex lesions; design: method as in PMID 15684658; details: rat, ref [6], cited from earlier work
# rat plasma sPLA2 = test: 10-pyrene fluorescence enzyme assay, rat plasma sPLA2 (ex vivo); format: biochemical, rat (Sprague Dawley)
# Method: as §1
# Enzyme assays were conducted at ambient temperature (22–25°) using a Victor 3 fluorescent reader (Perkin Elmer, Nutley NJ). The substrate was 1-Palmitoyl-2-Pyrenedecanoyl Phosphatidylcholine ("10-pyrene", Caymen Chemical, Ann Arbor MI) a substrate for all calcium dependent PLA2s with the exception of cPLA2 and PAF-AH. The substrate (supplied in chloroform) was dried under a nitrogen stream, quickly dissolved in ethanol, and stored at -20° prior to use. Substrate solutions were prepared in reaction buffer consisting of 50 mM tris (pH = 7.4), 0.1 M NaCl, 2 mM CaCl2, 0.25% fatty acid-free albumin (Sigma) and the CHEC-9 peptide at the indicated concentrations. CHEC-9 ([…]) was synthesized by Celtek, (Nashville, TN), purified and cross-linked as described previously, and aliquots stored in tris buffer or DMEM vehicles at -80°. The 10-pyrene substrate forms phospholipids vesicles in aqueous solutions [13], and upon hydrolysis, releases 10-pyrenyldecanoic acid. This product is fluorescent in the presence of albumin and was measured at 350 nm excitation, 405 nm emission. Plasma samples were 20% final concentration in the reaction mixture, and all enzyme reactions were initiated with the addition of the substrate solution to the sPLA2 containing samples. Kinetic parameters including the properties of CHEC-9 were determined by measuring the initial velocities (Vo) of enzyme reactions (within 2 minutes of initiation). […] Km and Vmax and r^2 were determined with regression software (Prism) from Graphpad (San Diego, CA).
# The characteristics of CHEC-9 inhibition were determined using both classical characterization of inhibitor types, i.e., the direction of changes in Km and Vmax, and more recent reports that derive consistent relationships between the extent of enzyme inhibition and substrate concentration. […]
# [5] = CHEC-9 10.0 nM, 20% plasma, 10-pyrene 5–30 μM, pH 7.4, 22–25°
# [6] = CHEC-9 50.0 nM, 20% plasma, 10-pyrene 5–30 μM, pH 7.4, 22–25°
sequence,measurement,setting,value
"CHEASAAQC [CHEC-9, nonapeptide CHEC-9 (…), internal fragment of DSEP/Dermcidin/PIF, synthesized by Celtek, purified and cross-linked]",KiNR (apparent inhibition constant) vs substrate concentration,"sPLA2 group I [1]; 10-pyrene 2-7 μM, 5 nM sPLA2, CHEC-9 0.1, 1.0, 10 nM",varied inversely with the substrate concentration; also recorded: overall decline in this value with increasing substrate concentration for each peptide concentration
same,Km,"sPLA2 group I [1]; CHEC-9 0.1 nM, pH 7.4, 22–25°",10.8 µM
same,Vmax,"sPLA2 group I [1]; CHEC-9 0.1 nM, pH 7.4, 22–25°",11.54 nM/min/ng
same,Km,"sPLA2 group I [1]; CHEC-9 1.0 nM, pH 7.4, 22–25°",3.4 µM
same,Vmax,"sPLA2 group I [1]; CHEC-9 1.0 nM, pH 7.4, 22–25°",5.56 nM/min/ng
same,Km,"sPLA2 group I [1]; CHEC-9 10.0 nM, pH 7.4, 22–25°",2.26 µM
same,Vmax,"sPLA2 group I [1]; CHEC-9 10.0 nM, pH 7.4, 22–25°",4.04 nM/min/ng
same,change of Vmax and Km,sPLA2 group I [1]; CHEC-9 0.1-10 nM,reduced both the Vmax and Km of the enzyme reaction
same,effect of CHEC-9 below 10 nM on Vo at 2 nM or 6 nM sPLA2,"sPLA2 group I [1]; CHEC-9 lower than 10 nM, 2 nM or 6 nM sPLA2, 6 μM 10-pyrene",minimally effective or ineffective at 2 nM or 6 nM sPLA2
same,effect of CHEC-9 below 10 nM on Vo at 10 nM sPLA2,"sPLA2 group I [1]; CHEC-9 lower than 10 nM, 10 nM sPLA2, 6 μM 10-pyrene",produced consistent reductions in reaction velocity when used with 10 nM enzyme
same,Ki,"sPLA2 group I [1]; Group I sPLA2, uncompetitive, Ki = KiNR/(1+(Km/[S])), pH 7.4, 22–25°",0.00402 ± 0.00156 µM
same,effect on Vo at lowest substrate concentrations,sPLA2 group I [1]; lowest substrate concentrations,"minimally effective, ineffective, or even potentiated Vo"
same,velocity of the enzyme reaction (Vo),"sPLA2 group I [1]; nanomolar CHEC-9, substrate one-half Km or less",reduced by nanomolar concentrations of CHEC-9
same,reduction of Vo with varied enzyme concentration,sPLA2 group I [1]; 6 μM 10-pyrene,maximal reductions of Vo occurred at 10 nM sPLA2
same,reduction of Vo with varied enzyme concentration,"sPLA2 group I [1]; 6 μM 10-pyrene, listed as peptide","most effective at the highest concentration of sPLA2, and showed declining efficacy at the lower enzyme concentrations"
same,"type of inhibition, sPLA2 group I",sPLA2 group I [1]; substrate at one-half Km or less,most consistent with an uncompetitive (or anti-competitive) inhibitor of sPLA2 group I
same,specificity,sPLA2 [2]; plasma and venom-derived sPLA2,broad specificity
same,Ki,"sPLA2 [2]; read-out: Ki (individual experiments), individual experiments repeated 5 or more times, pH 7.4, 22–25°",< 0.1 µM
same,Ki,"sPLA2 [2]; read-out: Ki values (all cases), venom-derived sPLA2 group I and plasma of rats and humans",< 0.1 µM
same,type of inhibition (all enzyme sources),"sPLA2 [2]; venom-derived sPLA2 group I, plasma of rats and humans",uncompetitive (or anti-competitive) enzyme inhibitor
same,"type of inhibition, human plasma","Human Plasma sPLA2; 20% plasma, 10-pyrene 5–30 μM",consistent with the properties of an uncompetitive inhibitor
same,Vmax,Human Plasma sPLA2; [5],1.42 μM/min/ml
same,Km,Human Plasma sPLA2; [5],40.8 µM
same,Vmax,Human Plasma sPLA2; [6],0.973 μM/min/ml
same,Km,Human Plasma sPLA2; [6],24.1 µM
same,"change of Km and Vmax, human plasma","Human Plasma sPLA2; CHEC-9 10, 50 nM, 20% plasma",Km and Vmax of plasma samples were both reduced by CHEC-9
same,Ki,"Human Plasma sPLA2; Human plasma sPLA2, 20% plasma, uncompetitive, Ki = KiNR/(1+(Km/[S])), pH 7.4, 22–25°",0.062 ± 0.0132 µM
same,"effect on enzyme activity at lowest substrate concentrations, human plasma","Human Plasma sPLA2; CHEC-9 10, 50 nM",less effective or even exaggerated the reaction at the lower substrate concentrations
same,"effect on enzyme activity at lowest substrate concentrations, human plasma","Human Plasma sPLA2; CHEC-9 10, 50 nM, listed as peptide",exaggerated enzyme activity in human plasma at the lowest substrate concentrations used
same,level of active sPLA2 vs pre-injection,"sPLA2 [3]; restrained rats, n = 4, on average","holding the level of active enzyme, on average, near pre-injection values"
same,significance of sPLA2 reduction vs vehicle,"sPLA2 [3]; p < 0.05 by Mann Whitney test, n = 4 rats per group",significant differences at 30 and 60 minutes
same,"sPLA2 band on native gel, with peptide and substrate",sPLA2 group I [4],absent or at least dramatically reduced
same,"sPLA2 band on native gel, with peptide and substrate",sPLA2 group I [4]; listed as peptide,disappeared or was markedly attenuated
same,"sPLA2 band on native gel, peptide alone","sPLA2 group I [4]; 26 μM sPLA2, 40 μM CHEC-9, no substrate, pH 7.4, room temperature 30 min",The same band appeared
same,duration of anti-inflammatory and neuron survival effects,cerebral cortex lesions; a subcutaneous injection after cerebral cortex lesions,at least 4 days
same,anti-inflammatory and neuron survival effects,cerebral cortex lesions; subcutaneous injection after cerebral cortex lesions,inhibit neuron death and aspects of the inflammatory response; also recorded: anti-inflammatory and neuron survival effects
same,"inhibition with increased substrate concentrations, rat plasma","rat plasma sPLA2; 25 nM CHEC-9, 20% plasma, increased substrate, mean of three reactions",this delay of the inhibition is not detected
same,"inhibition at very low substrate concentrations, rat plasma","rat plasma sPLA2; 25 nM CHEC-9, 20% plasma, very low substrate, mean of three reactions",delayed inhibition at the lower substrate concentrations
same,"inhibition at lower substrate concentrations, rat plasma","rat plasma sPLA2; lower substrate concentrations, product formation relatively stable",inhibition by CHEC-9 was readily observed
same,"effect at high substrate concentrations (substrate inhibition), rat plasma",rat plasma sPLA2; substrate > 25 μM,would sometimes reverse this inhibitory effect

# — paper PMC1624820, “Inhibition of secreted phospholipase A2 by neuron survival and anti-inflammatory peptide CHEC-9” (Journal of Neuroinflammation, 2006)
